From article PMC10401708, “Enzymatic Hydroxylation of Aliphatic C–H Bonds by a Mn/Fe Cofactor” (Journal of the American Chemical Society, 2023)

Tests used:
AibH1H2 [1] = target: T1, AibH1H2 (Rhodococcus wratislaviensis, UniProt A0A402C2Q3); experiment: GC-MS of silylated D-MeSer product; assay type: biochemical; details: preliminary estimate; O2, ascorbate as reductant, 1 equiv Fe(II) added to Mn-grown enzyme; 20 mM HEPES pH 8.0, 30 °C
T1 construct: gene Rhow_000803; recombinant, E. coli BL21(DE3), pET-Duet-AibH1H2 with GroEL/ES-TF; His6-tagged; (alpha-beta)2 heterotetramer; Mn-grown (MnAibH1H2), Fe(II) added; with 2-aminoisobutyric acid hydroxylase subunit AibH1 (amidohydrolase family protein)
T1 sequence (A0A402C2Q3 entry or part of it): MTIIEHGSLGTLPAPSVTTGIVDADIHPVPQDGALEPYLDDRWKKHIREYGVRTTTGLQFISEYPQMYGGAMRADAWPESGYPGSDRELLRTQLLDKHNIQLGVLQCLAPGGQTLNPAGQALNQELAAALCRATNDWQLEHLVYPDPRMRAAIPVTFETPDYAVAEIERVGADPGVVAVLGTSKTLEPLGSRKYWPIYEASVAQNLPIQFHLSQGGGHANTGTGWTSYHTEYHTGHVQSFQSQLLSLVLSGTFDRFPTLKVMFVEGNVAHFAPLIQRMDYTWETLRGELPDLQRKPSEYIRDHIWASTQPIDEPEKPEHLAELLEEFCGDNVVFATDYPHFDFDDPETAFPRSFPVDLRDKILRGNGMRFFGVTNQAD
T1 sequence (A0A402C2V4 entry or part of it, further chain): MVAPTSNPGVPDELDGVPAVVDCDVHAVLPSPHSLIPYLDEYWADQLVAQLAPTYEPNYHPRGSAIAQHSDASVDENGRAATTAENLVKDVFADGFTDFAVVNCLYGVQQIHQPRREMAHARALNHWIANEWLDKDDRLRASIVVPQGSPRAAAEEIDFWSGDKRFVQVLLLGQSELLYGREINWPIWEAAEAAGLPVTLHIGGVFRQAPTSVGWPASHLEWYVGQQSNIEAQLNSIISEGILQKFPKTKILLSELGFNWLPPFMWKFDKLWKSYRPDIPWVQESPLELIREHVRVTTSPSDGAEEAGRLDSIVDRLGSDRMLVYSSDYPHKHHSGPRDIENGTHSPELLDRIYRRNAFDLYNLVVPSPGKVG

AibH1H2 [2] = target: T2, AibH1H2 (Rhodococcus wratislaviensis, UniProt A0A402C2Q3, D342A); experiment: enzymatic activity assay (GC-MS); assay type: biochemical; details: diminished activity although all metals are incorporated
T2 construct: gene Rhow_000803; recombinant, E. coli BL21(DE3), pET-Duet-AibH1H2 with GroEL/ES-TF; His6-tagged; (alpha-beta)2 heterotetramer; Mn-grown (MnAibH1H2), Fe(II) added; with 2-aminoisobutyric acid hydroxylase subunit AibH1 (amidohydrolase family protein)
T2 sequence (A0A402C2V4 entry or part of it, stated change not applied): as the sequence (A0A402C2V4 entry or part of it, further chain) above
T2 sequence (A0A402C2Q3 entry or part of it D342A): as the sequence (A0A402C2Q3 entry or part of it) above, with D342A counted along it

Km (AibH1H2 [1]): > 100 mM
Compound: CC(C)(N)C(=O)O [AIB, 2-aminoisobutyric acid]
enzymatic activity assay (GC-MS) (AibH1H2 [2]): upon substitution to alanine, results in protein with diminished enzymatic activity
